Assay results published in PubChem BioAssay (NCI).
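Results reflect a 48-hour exposure of cells in 96-well plates to compound at five concentrations. GI50 is the concentration that inhibits growth by half. TGI denotes the concentration required for complete inhibition of growth.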

What was measured:
Test in all cases: NCI anticancer screen, dose series, 48 h
A498 renal = tested on: A498 renal
SK-MEL-5 melanoma = tested on: SK-MEL-5 melanoma
SK-OV-3 ovarian = tested on: SK-OV-3 ovarian
M14 melanoma = tested on: M14 melanoma
OVCAR-4 ovarian = tested on: OVCAR-4 ovarian
OVCAR-8 ovarian = tested on: OVCAR-8 ovarian
OVCAR-5 ovarian = tested on: OVCAR-5 ovarian
MOLT-4 leukemia = tested on: MOLT-4 leukemia
HS 578T breast = tested on: HS 578T breast
SF-295 CNS = tested on: SF-295 CNS

Row | SMILES | TGI (A498 renal) | TGI (SK-MEL-5 melanoma) | TGI (SK-OV-3 ovarian) | TGI (M14 melanoma) | TGI (OVCAR-4 ovarian) | TGI (OVCAR-8 ovarian) | TGI (OVCAR-5 ovarian) | TGI (MOLT-4 leukemia) | GI50 (A498 renal) | GI50 (SK-OV-3 ovarian) | GI50 (M14 melanoma) | GI50 (OVCAR-4 ovarian) | GI50 (OVCAR-8 ovarian) | GI50 (OVCAR-5 ovarian) | GI50 (MOLT-4 leukemia) | GI50 (HS 578T breast) | TGI (HS 578T breast) | TGI (SF-295 CNS) | GI50 (SF-295 CNS) | GI50 (SK-MEL-5 melanoma)
1 | COc1ccccc1NC(=O)c1nc2ccc([N+](=O)[O-])cc2nc1C | > 100 µM | > 100 µM | > 100 µM | > 100 µM | > 100 µM | > 100 µM | > 100 µM | > 100 µM |  |  |  |  |  |  |  |  |  |  |  | 
2 | OCc1ccc(N2CCc3ccccc3C2)cc1Cl | 0.0355 µM |  | 8.95 µM | > 100 µM | 0.0633 µM | 36.6 µM | 0.069 µM | > 78.7 µM | < 0.015 µM | 0.754 µM | 34.1 µM | < 0.0149 µM | 3.66 µM | < 0.0123 µM | 27.2 µM | 32.6 µM | > 89.8 µM |  |  | 
3 | N/N=c1\c2ccccc2c2cc3c(cc12)/c(=N/N)c1ccccc13 |  | > 100 µM | > 100 µM | > 100 µM | > 100 µM | > 100 µM | > 100 µM | > 100 µM |  |  |  |  |  |  |  |  |  | > 100 µM |  | 
4 | COc1cc(/C=C2\C[C@H]3[C@@H]4CC=C5C[C@@H](O)CC[C@]5(C)[C@H]4CC[C@]3(C)[C@H]2O)ccc1OCCCn1ccnc1 |  | 12.4 µM |  |  |  | 16.1 µM | 23.3 µM | > 50 µM |  |  |  |  | 2.62 µM | 7.14 µM | > 50 µM | 1.18 µM | 4.24 µM | 6.32 µM | 1.55 µM | 4.15 µM
5 | O=C(/C(=C\c1ccc(Cl)cc1)c1ccccc1)c1ccccc1 | > 100 µM |  | > 100 µM | > 100 µM | > 100 µM | > 100 µM | > 100 µM | > 100 µM |  |  |  |  |  |  |  |  |  | > 100 µM |  | 
6 | Clc1cc(Cl)cc(N2N=C(c3cccc(Nc4ccncc4)c3)CC2c2ccc3c(c2)OCO3)c1 (stereo unspecified) | 4.54 µM | 3.21 µM | 8.38 µM | 3.37 µM | 3.18 µM |  | 3.51 µM | 4.49 µM | 1.34 µM | 2.54 µM | 1.75 µM | 1.65 µM |  | 1.83 µM | 1.88 µM |  |  | 3.2 µM | 1.77 µM | 1.77 µM
7 | OCc1c[te]c(-c2ccccc2)c1 | > 100 µM | > 100 µM | > 100 µM | > 100 µM | > 100 µM | > 100 µM | > 100 µM | > 100 µM |  |  |  |  |  |  |  |  |  |  |  | 
8 | CN(C)c1ccc(/C=C/C2=[N+](C)c3ccccc3C2(C)C)cc1 | 74.9 µM |  | 4.19 µM | 14.4 µM | 31.5 µM | 12.1 µM | 22.4 µM | 2.24 µM | 8.86 µM | 0.729 µM | 0.75 µM | 1.63 µM | 0.349 µM | 2.22 µM | 0.305 µM | 4.15 µM | > 100 µM | 6.64 µM | 1.12 µM | 
9 | Cn1c(/C=C/[N+](=O)[O-])cc2ccccc21 | 9.27 µM | 13.3 µM | 26.3 µM | 3.56 µM | 92.1 µM | 31.7 µM | 56.6 µM | 58 µM | 2.19 µM | 13.2 µM | 1.77 µM | 10.3 µM | 3.17 µM | 21.2 µM | 5.36 µM |  |  | > 100 µM | 5.84 µM | 3.07 µM
10 | Cc1ccc(S(=O)OCC23CC4CC(CC(C4)C2)C3)cc1 (stereo unspecified) | > 100 µM | > 100 µM | > 100 µM | > 100 µM | > 100 µM | > 100 µM | > 100 µM | > 100 µM |  |  |  |  |  |  |  |  |  | > 100 µM |  | 
11 | NNC(=O)N/N=C1\C(=O)N(c2ccc(Cl)c(Cl)c2)C(=O)C(=O)C1c1nc2ccccc2s1 (stereo unspecified) | > 100 µM | > 100 µM | > 100 µM | > 100 µM | > 100 µM | > 100 µM |  | > 100 µM |  |  |  |  |  |  |  |  |  | > 100 µM |  | 
12 | COc1cc([N+](=O)[O-])c(OC)cc1-c1nc2sc(Cl)cn2c1/C=N/NC1=NCCN1 | 3.57 µM | 2.19 µM | 3.48 µM | 2.8 µM |  |  | 2.3 µM |  | 1.85 µM | 1.88 µM | 1.39 µM |  |  | 0.878 µM |  | 2.22 µM | 4.94 µM | 52.8 µM | 2.74 µM | 0.83 µM
13 | O=C(COC(=O)c1cccc2c(=O)c3ccccc3[nH]c12)Nc1ccc(C(=O)O)cc1 | > 100 µM | > 100 µM | > 100 µM | > 100 µM | > 100 µM | > 100 µM |  | > 100 µM |  |  |  |  |  |  |  |  |  | > 100 µM |  | 
14 | Cc1cc(C)nc(NS(=O)(=O)c2ccc(Nc3c4ccc(Cl)cc4nc4c(C(=O)NCCN(C)C)cccc34)cc2)n1 | > 100 µM | > 100 µM | > 100 µM | > 100 µM | > 100 µM | > 100 µM | > 100 µM | > 100 µM |  |  |  |  |  |  |  |  |  | > 100 µM |  | 
15 | CCN1Cc2nc3sc(C)c(C)c3c(=O)n2C=C1C | > 100 µM | 51.8 µM | > 100 µM |  | > 100 µM | 25.3 µM | > 100 µM | 8.7 µM | 20.3 µM | 74.1 µM |  | 11.8 µM | 4.83 µM | 42.3 µM | 2.46 µM | 1.66 µM | 6.92 µM | > 100 µM | 20.2 µM | 5.87 µM
16 | COC(=O)C(Cc1nc2ccccc2nc1C)/C(=N\NC(N)=O)C(=O)Nc1cccc([N+](=O)[O-])c1 (stereo unspecified) | > 100 µM | > 100 µM | > 100 µM | > 100 µM | > 100 µM | > 100 µM | > 100 µM | > 100 µM |  |  |  |  |  |  |  |  |  | > 100 µM |  | 
17 | COC(=O)C1=C(C(=O)OC)C2(C)Nc3ccccc3C2=C(c2ccccc2)C1 (stereo unspecified) |  | 29.9 µM |  | 31.8 µM | 50.1 µM | 61.7 µM | 62.7 µM | 29.6 µM |  |  |  |  |  |  |  |  |  | 58 µM |  | 
18 | COc1ccc(C(=O)C(c2ccc(OCc3ccccc3)cc2)c2ccc(OCc3ccccc3)cc2)cc1 |  | > 100 µM | > 100 µM | > 100 µM | > 100 µM | > 100 µM | > 100 µM | > 100 µM |  |  |  |  |  |  |  |  |  | > 100 µM |  | 
19 | CC1OC(OC2C(OC3CCC4(C)C(CCC5(C)C4CC=C4C6CC(C)(C)CCC6(C(=O)O)CCC45C)C3(C)CO)OCC(O)C2O)C(O)C(O)C1O (stereo unspecified) | 31.1 µM | 36.3 µM | 33.5 µM |  | 30.5 µM | 40.1 µM | 38.4 µM | 45.8 µM |  |  |  |  |  |  |  |  | 31.8 µM | 32 µM |  | 
